Columns and labels:
human CYP11B2 = molecular target: T1, human CYP11B2 (Homo sapiens, UniProt P19099); experiment: G-402 cellular enzyme assay, human CYP11B2 (aldosterone release, HTRF); type: cell-based; conditions: G-402 cells expressing human CYP11B2; 1 μM Deoxycorticosterone
T1 construct: expressed in transfected cells
T1 sequence (P19099 25-503): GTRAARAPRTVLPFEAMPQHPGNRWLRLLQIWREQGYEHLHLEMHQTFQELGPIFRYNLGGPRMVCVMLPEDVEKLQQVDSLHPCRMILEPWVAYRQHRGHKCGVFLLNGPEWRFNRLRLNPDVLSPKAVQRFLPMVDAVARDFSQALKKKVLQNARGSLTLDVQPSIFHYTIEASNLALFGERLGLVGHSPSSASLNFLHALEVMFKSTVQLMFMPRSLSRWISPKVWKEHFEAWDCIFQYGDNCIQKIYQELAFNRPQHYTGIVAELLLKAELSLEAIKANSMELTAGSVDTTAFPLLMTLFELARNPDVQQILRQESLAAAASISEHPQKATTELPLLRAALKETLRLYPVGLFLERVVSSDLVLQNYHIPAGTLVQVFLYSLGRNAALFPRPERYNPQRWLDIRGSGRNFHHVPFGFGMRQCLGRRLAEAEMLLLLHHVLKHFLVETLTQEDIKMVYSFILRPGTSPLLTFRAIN
Text: (§1) Herein we identified the use of the G-402 cell line as a host cell to ectopically express (transiently or stably) enzymes of the CYP11 family. Specifically we developed stable G-402 cells expressing ectopically human CYP11B1, human CYP11B2, human CYP11A1, cynmolgus CYP11B1 or cynomolgus CYP11B2 enzyme activity. Importantly the identified cell line G-402 expresses co-factors (adrenodoxin and adrenodoxin reductase) important for the activity of the CYP11 family and no relevant enzyme activity of the CYP11 family (in comparison to H295R cells) was detected in these cells. Therefore the G-402 cell line is uniquely suited as a host cell for the ectopic expression of enzymes from the CYP11 family.
(§2) The expression plasmids contains the ORF for either human/cyno CYP11B1 or CYP11B2 under the control of a suitable promoter (CMV-promoter) and a suitable resistance marker (neomycin). Using standard techniques the expression plasmid is transfected into G-402 cells and these cells are then selected for expressing the given resistance markers. Individual cell-clones are then selected and assessed for displaying the desired enzymatic activity using 11-Deoxycorticosterone (Cyp11B2) or 11-Deoxycortisol (Cyp11B1) as a substrate.
(§3) G-402 cells expressing CYP11 constructs were established as described above and maintained in McCoy's 5a Medium Modified, ATCC Catalog No. 30-2007 containing 10% FCS and 400 μg/ml G418 (Geneticin) at 37° C. under an atmosphere of 5% CO2/95% air.
(§4) Cellular enzyme assays were performed in DMEM/F12 medium containing 2.5% charcoal treated FCS and appropriate concentration of substrate (0.3-10 uM 11-Deoxycorticosterone, 11-Deoxycortisol or Corticosterone). For assaying enzymatic activity, cells were plated onto 96 well plates and incubated for 16 h. An aliquot of the supernatant is then transferred and analyzed for the concentration of the expected product (Aldosterone for CYP11B2; Cortisol for CYP11B1). The concentrations of these steroids can be determined using HTRF assays from CisBio analyzing either Aldosterone or Cortisol.
(§5) Inhibition of the release of produced steroids can be used as a measure of the respective enzyme inhibition by test compounds added during the cellular enzyme assay. The dose dependent inhibition of enzymatic activity by a compound is calculated by means of plotting added inhibitor concentrations (x-axes) vs. measured steroid/product level (y-axes). The inhibition is then calculated by fitting the following 4-parameter sigmoidal function (Morgan-Mercer-Flodin (MMF) model) to the raw data points using the least squares method:
(§6) [formula] wherein, A is the maximum y value, B is the EC50 factor determined using XLFit, C is the minimum y value and D is the slope value.
(§7) EC50 values for compounds claimed herein were tested with the G402-based assay system described. Cyp11B2 enzyme activity was tested in presence of 1 μM Deoxycorticosterone and variable amounts of inhibitors; Cyp11B1 enzyme activity was tested in presence of 1 μM Deoxycortisol and variable amounts of inhibitors.

human CYP11B1 = molecular target: T2, human CYP11B1 (Homo sapiens, UniProt P15538); experiment: G-402 cellular enzyme assay, human CYP11B1 (cortisol release, HTRF); type: cell-based; conditions: G-402 cells expressing human CYP11B1; 1 μM Deoxycortisol
T2 construct: expressed in transfected cells
T2 sequence (P15538 25-503): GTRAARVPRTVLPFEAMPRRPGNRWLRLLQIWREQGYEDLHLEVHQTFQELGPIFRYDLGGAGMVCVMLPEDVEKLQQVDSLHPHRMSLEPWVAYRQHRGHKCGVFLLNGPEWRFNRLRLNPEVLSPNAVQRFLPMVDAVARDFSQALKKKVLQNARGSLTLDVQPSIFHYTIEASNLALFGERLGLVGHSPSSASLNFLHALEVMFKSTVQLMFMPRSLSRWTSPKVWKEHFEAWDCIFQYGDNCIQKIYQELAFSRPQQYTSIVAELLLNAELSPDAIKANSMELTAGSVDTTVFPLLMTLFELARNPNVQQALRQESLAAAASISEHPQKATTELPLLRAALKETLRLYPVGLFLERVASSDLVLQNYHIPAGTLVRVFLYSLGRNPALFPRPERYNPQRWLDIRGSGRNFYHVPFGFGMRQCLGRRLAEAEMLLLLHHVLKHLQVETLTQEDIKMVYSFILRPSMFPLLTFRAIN
Text: as §1, §2, §3, §4, §5, §6, §7

Row | SMILES | EC50 (human CYP11B2) [nM] | EC50 (human CYP11B1) [nM]
1 | CN1C(=O)CCc2cc(-c3cncc(Cn4c(Cl)cccc4=O)c3)ccc21 [Example 17, 6-[5-(6-Chloro-2-oxo-2H-pyridin-1-ylmethyl)-pyridin-3-yl]-1-methyl-3,4-dihydro-1H-quinolin-2-one] | 2.2 | 363
2 | Cc1ccn(Cc2cncc(-c3ccc4c(c3)CCC(=O)N4C)c2)c(=O)c1 [Example 8, 1-Methyl-6-[5-(4-methyl-2-oxo-2H-pyridin-1-ylmethyl)-pyridin-3-yl]-3,4-dihydro-1H-quinolin-2-one] | 27 | 1050
3 | CN1C(=O)CCc2cc(-c3cncc(Cn4cc(F)ccc4=O)c3)ccc21 [Example 2, 6-[5-(5-Fluoro-2-oxo-2H-pyridin-1-ylmethyl)-pyridin-3-yl]-1-methyl-3,4-dihydro-1H-quinolin-2-one] | 18.5 | 935
4 | CN1C(=O)CCc2cc(-c3cncc(Cn4cc(C#N)ccc4=O)c3)ccc21 [Example 16, 1-[5-(1-Methyl-2-oxo-1,2,3,4-tetrahydro-quinolin-6-yl)-pyridin-3-ylmethyl]-6-oxo-1,6-dihydro-pyridine-3-carbonitrile] | 67.3 | 2420
5 | CN1C(=O)CCc2cc(-c3cncc(Cn4c(F)cccc4=O)c3)ccc21 [Example 18, 6-[5-(6-Fluoro-2-oxo-2H-pyridin-1-ylmethyl)-pyridin-3-yl]-1-methyl-3,4-dihydro-1H-quinolin-2-one] | 4.1 | 172
6 | CN1C(=O)CCc2cc(-c3cncc(Cn4ccccc4=O)c3)ccc21 [Example 10, 1-Methyl-6-[5-(2-oxo-2H-pyridin-1-ylmethyl)-pyridin-3-yl]-3,4-dihydro-1H-quinolin-2-one] | 29 | 1230
7 | CN1C(=O)CCc2cc(-c3cncc(Cn4cc(C(F)(F)F)ccc4=O)c3)ccc21 [Example 15, 1-Methyl-6-[5-(2-oxo-5-trifluoromethyl-2H-pyridin-1-ylmethyl)-pyridin-3-yl]-3,4-dihydro-1H-quinolin-2-one] | 19.6 | 680
8 | CN1C(=O)CCc2cc(-c3cncc(Cn4ccsc4=O)c3)ccc21 [Example 3, 1-Methyl-6-[5-(2-oxo-thiazol-3-ylmethyl)-pyridin-3-yl]-3,4-dihydro-1H-quinolin-2-one] | 3.6 | 275
9 | CN1C(=O)CCc2cc(-c3cncc(Cn4cccc(F)c4=O)c3)ccc21 [Example 6, 6-[5-(3-Fluoro-2-oxo-2H-pyridin-1-ylmethyl)-pyridin-3-yl]-1-methyl-3,4-dihydro-1H-quinolin-2-one] | 32.7 | 4070
10 | CN1C(=O)CCc2cc(-c3cncc(Cn4cccnc4=O)c3)ccc21 [Example 13, 1-Methyl-6-[5-(2-oxo-2H-pyrimidin-1-ylmethyl)-pyridin-3-yl]-3,4-dihydro-1H-quinolin-2-one] | 89.2 | 5570
11 | CN1C(=O)CCc2cc(-c3cncc(Cn4cccc(C(F)(F)F)c4=O)c3)ccc21 [Example 11, 1-Methyl-6-[5-(2-oxo-3-trifluoromethyl-2H-pyridin-1-ylmethyl)-pyridin-3-yl]-3,4-dihydro-1H-quinolin-2-one] | 18.1 | 738
12 | CN1C(=O)CCc2cc(-c3cncc(Cn4cc(Cl)ccc4=O)c3)c(F)cc21 [Example 21, 6-[5-(5-Chloro-2-oxo-2H-pyridin-1-ylmethyl)-pyridin-3-yl]-7-fluoro-1-methyl-3,4-dihydro-1H-quinolin-2-one] | 15.1 | 569
13 | Cc1nccc(=O)n1Cc1cncc(-c2ccc3c(c2)CCC(=O)N3C)c1 [Example 12, 1-Methyl-6-[5-(2-methyl-6-oxo-6H-pyrimidin-1-ylmethyl)-pyridin-3-yl]-3,4-dihydro-1H-quinolin-2-one] | 7.4 | 256
14 | CN1C(=O)CCc2cc(-c3cncc(Cn4cc(C(F)(F)F)cc(F)c4=O)c3)ccc21 [Example 5, 6-[5-(3-Fluoro-2-oxo-5-trifluoromethyl-2H-pyridin-1-ylmethyl)-pyridin-3-yl]-1-methyl-3,4-dihydro-1H-quinolin-2-one] | 13.2 | 1080

The next lines start with the values.

Row | EC50 (human CYP11B2) [nM] | EC50 (human CYP11B1) [nM] | SMILES
15 | 1 | 44.8 | Cc1c(Cn2cccc(F)c2=O)cncc1-c1cc2c(cc1F)N(C)C(=O)CC2 [Example 26, 7-Fluoro-6-[5-(3-fluoro-2-oxo-2H-pyridin-1-ylmethyl)-4-methyl-pyridin-3-yl]-1-methyl-3,4-dihydro-1H-quinolin-2-one]
16 | 11.6 | 506 | Cc1ccn(Cc2cncc(-c3cc4c(cc3F)N(C)C(=O)CC4)c2)c(=O)c1 [Example 20, 7-Fluoro-1-methyl-6-[5-(4-methyl-2-oxo-2H-pyridin-1-ylmethyl)-pyridin-3-yl]-3,4-dihydro-1H-quinolin-2-one]
17 | 2.1 | 234 | Cc1c(Cn2c(Cl)cccc2=O)cncc1-c1cc2c(cc1F)N(C)C(=O)CC2 [Example 25, 6-[5-(6-Chloro-2-oxo-2H-pyridin-1-ylmethyl)-4-methyl-pyridin-3-yl]-7-fluoro-1-methyl-3,4-dihydro-1H-quinolin-2-one]
18 | 12.5 | 3130 | Cc1cccc(=O)n1Cc1cncc(-c2cc3c(cc2F)N(C)C(=O)CC3)c1 [Example 23, 7-Fluoro-1-methyl-6-[5-(6-methyl-2-oxo-2H-pyridin-1-ylmethyl)-pyridin-3-yl]-3,4-dihydro-1H-quinolin-2-one]
19 | 16.5 | 2140 | Cc1c(Cn2c(C)cccc2=O)cncc1-c1cc2c(cc1F)N(C)C(=O)CC2 [Example 24, 7-Fluoro-1-methyl-6-[4-methyl-5-(6-methyl-2-oxo-2H-pyridin-1-ylmethyl)-pyridin-3-yl]-3,4-dihydro-1H-quinolin-2-one]
20 | 0.2 | 7.1 | CN1C(=O)CCc2cc(-c3cncc(Cn4c(Cl)cccc4=O)c3)c(F)cc21 [Example 22, 6-[5-(6-Chloro-2-oxo-2H-pyridin-1-ylmethyl)-pyridin-3-yl]-7-fluoro-1-methyl-3,4-dihydro-1H-quinolin-2-one]
21 | 0.5 | 23.8 | CN1C(=O)CCc2cc(-c3cncc(Cn4cccc(F)c4=O)c3)c(F)cc21 [Example 19, 7-Fluoro-6-[5-(3-fluoro-2-oxo-2H-pyridin-1-ylmethyl)-pyridin-3-yl]-1-methyl-3,4-dihydro-1H-quinolin-2-one]
22 | 8.8 | 820 | Cc1cccc(=O)n1Cc1cncc(-c2ccc3c(c2)CCC(=O)N3C)c1 [Example 7, 1-Methyl-6-[5-(6-methyl-2-oxo-2H-pyridin-1-ylmethyl)-pyridin-3-yl]-3,4-dihydro-1H-quinolin-2-one]

Source: patent US9593107B2, “Dihydroquinoline-2-one derivatives” (Hoffmann-La Roche Inc., priority 2014, dated 2017)
